Experiments:
Assay in all cases: Indoor herbicide activity determination, Seed Treatment; pre-emergence (soil spray)
Type in all cases: in vivo
Alopecurus japonicus = system: Alopecurus japonicus
How it was run: (§1)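 Herbicide was applied to soil before weed emergence, 24 h after sowing, by tower spraying. Plants grew at constant temperature with illumination, and fresh weight compared with untreated pots gave % inhibition after 21 days.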

Alopecurus myosuroides = system: Alopecurus myosuroides
How it was run: as §1

Cyperus iria = conditions: read-out: Herbicidal activities (inhibition rate) Cyperus iria; for inhibition at 60 g/ha: 60 g a.i./ha; for inhibition at 120 g/ha: 120 g a.i./ha
How it was run: as §1

Digitaria sanguinalis = conditions: read-out: Herbicidal activities (inhibition rate) Digitaria sanguinalis; for inhibition at 60 g/ha: 60 g a.i./ha
How it was run: as §1

Eclipta prostrata = conditions: read-out: Herbicidal activities (inhibition rate) Eclipta prostrata; for inhibition at 60 g/ha: 60 g a.i./ha; for inhibition at 120 g/ha: 120 g a.i./ha
How it was run: as §1

Eleusine indica = system: Eleusine indica
How it was run: as §1

Leptochloa chinensis = system: Leptochloa chinensis
How it was run: as §1

Lolium multiflorum = system: Lolium multiflorum
How it was run: as §1

Aegilops tauschii = conditions: 120 g a.i./ha, read-out: Herbicidal activities (inhibition rate) Aegilops tauschii
How it was run: as §1

Row | SMILES | Herbicidal activities, Alopecurus japonicus (inhibition rate class) (Alopecurus japonicus; Dosage 120 g a.i./ha) | Herbicidal activities, Alopecurus myosuroides (inhibition rate class) (Alopecurus myosuroides; Dosage 120 g a.i./ha) | inhibition at 60 g/ha (Cyperus iria) [%] | inhibition at 60 g/ha (Digitaria sanguinalis) [%] | inhibition at 60 g/ha (Eclipta prostrata) [%] | Herbicidal activities, Eleusine indica (inhibition rate class) (Eleusine indica; Dosage 120 g a.i./ha) | Herbicidal activities, Leptochloa chinensis (inhibition rate class) (Leptochloa chinensis; Dosage 120 g a.i./ha) | Herbicidal activities, Lolium multiflorum (inhibition rate class) (Lolium multiflorum; Dosage 120 g a.i./ha) | Herbicidal activity (inhibition rate class), Eleusine indica (Eleusine indica; Dosage 120 g a.i./ha) | Herbicidal activity (inhibition rate class), Leptochloa chinensis (Leptochloa chinensis; Dosage 120 g a.i./ha) | further results
1 | C=C[C@]1(C(=O)N[C@H]2C=C[C@@H](C(=O)O)C2)CC(c2cc(F)cc(C(F)(F)F)c2)=NO1 [I-426] | A (A indicates that the inhibition rate was greater than or equal to 80% to 100%) | A (A indicates that the inhibition rate was greater than or equal to 80% to 100%) | 80 to 100 | 80 to 100 | 60 to 80 | A (A indicates that the inhibition rate was greater than or equal to 80% to 100%) | A (A indicates that the inhibition rate was greater than or equal to 80% to 100%) | A (A indicates that the inhibition rate was greater than or equal to 80% to 100%) |  |  | 
2 | C[C@]1(C(=O)N[C@H]2C=C[C@@H](C(=O)OCCBr)C2)CC(c2cc(F)cc(C(F)(F)F)c2)=NO1 [I-501] |  |  | 60 to 80 | 80 to 100 | 60 to 80 |  |  |  | A (A indicates that the inhibition rate was greater than or equal to 80% to 100%) | A (A indicates that the inhibition rate was greater than or equal to 80% to 100%) | 
3 | C=C[C@]1(C(=O)N[C@H]2C=C[C@@H](C(=O)OCCOC)C2)CC(c2cc(F)cc(C(F)(F)F)c2)=NO1 [I-443] |  |  | 80 to 100 | 80 to 100 | 80 to 100 | A (A indicates that the inhibition rate was greater than or equal to 80% to 100%) | A (A indicates that the inhibition rate was greater than or equal to 80% to 100%) |  |  |  | 
4 | C=C[C@]1(C(=O)N[C@H]2C=C[C@@H](C(=O)OCCC)C2)CC(c2cc(F)cc(C(F)(F)F)c2)=NO1 [I-437] | A (A indicates that the inhibition rate was greater than or equal to 80% to 100%) | A (A indicates that the inhibition rate was greater than or equal to 80% to 100%) | 80 to 100 | 80 to 100 | 60 to 80 | A (A indicates that the inhibition rate was greater than or equal to 80% to 100%) | A (A indicates that the inhibition rate was greater than or equal to 80% to 100%) | A (A indicates that the inhibition rate was greater than or equal to 80% to 100%) |  |  | 
5 | COC(=O)[C@@H]1C=C[C@H](NC(=O)[C@@]2(C(F)(F)F)CC(c3cc(Cl)cc(C(F)(F)F)c3)=NO2)C1 [I-524] |  |  | 80 to 100 | 80 to 100 | 60 to 80 |  |  |  | A (A indicates that the inhibition rate was greater than or equal to 80% to 100%) | A (A indicates that the inhibition rate was greater than or equal to 80% to 100%) | Herbicidal activity (inhibition rate class), Alopecurus japonicus (Alopecurus japonicus; Dosage 120 g a.i./ha): A (A indicates that the inhibition rate was greater than or equal to 80% to 100%); Herbicidal activity (inhibition rate class), Alopecurus myosuroides (Alopecurus myosuroides; Dosage 120 g a.i./ha): B (B indicates that the inhibition rate was greater than or equal to 60% to less than 80%)
6 | C=C[C@]1(C(=O)N[C@H]2C=C[C@@H](C(=O)OC)C2)CC(c2cc(F)cc(C(F)(F)F)c2)=NO1 [I-428] | A (A indicates that the inhibition rate was greater than or equal to 80% to 100%) | A (A indicates that the inhibition rate was greater than or equal to 80% to 100%) | 80 to 100 | 80 to 100 | 60 to 80 | A (A indicates that the inhibition rate was greater than or equal to 80% to 100%) | A (A indicates that the inhibition rate was greater than or equal to 80% to 100%) | A (A indicates that the inhibition rate was greater than or equal to 80% to 100%) |  |  | 
7 | O=C(OCC1CCCC1)[C@@H]1C=C[C@H](NC(=O)[C@@]2(C(F)(F)F)CC(c3cc(F)cc(C(F)(F)F)c3)=NO2)C1 [I-519] |  |  | 80 to 100 | 80 to 100 | 80 to 100 |  |  |  | A (A indicates that the inhibition rate was greater than or equal to 80% to 100%) | A (A indicates that the inhibition rate was greater than or equal to 80% to 100%) | Herbicidal activity (inhibition rate class), Alopecurus japonicus (Alopecurus japonicus; Dosage 120 g a.i./ha): A (A indicates that the inhibition rate was greater than or equal to 80% to 100%); Herbicidal activity (inhibition rate class), Alopecurus myosuroides (Alopecurus myosuroides; Dosage 120 g a.i./ha): A (A indicates that the inhibition rate was greater than or equal to 80% to 100%); Herbicidal activity (inhibition rate class), Lolium multiflorum (Lolium multiflorum; Dosage 120 g a.i./ha): A (A indicates that the inhibition rate was greater than or equal to 80% to 100%)
8 | C=C[C@]1(C(=O)N[C@H]2C=C[C@@H](C(=O)O[C@H](C)COC)C2)CC(c2cc(F)cc(OC(F)(F)F)c2)=NO1 [I-459] |  |  | 60 to 80 | 60 to 80 | 60 to 80 |  |  |  | A (A indicates that the inhibition rate was greater than or equal to 80% to 100%) | A (A indicates that the inhibition rate was greater than or equal to 80% to 100%) | Herbicidal activity (inhibition rate class), Alopecurus japonicus (Alopecurus japonicus; Dosage 120 g a.i./ha): A (A indicates that the inhibition rate was greater than or equal to 80% to 100%); Herbicidal activity (inhibition rate class), Alopecurus myosuroides (Alopecurus myosuroides; Dosage 120 g a.i./ha): A (A indicates that the inhibition rate was greater than or equal to 80% to 100%); Herbicidal activity (inhibition rate class), Lolium multiflorum (Lolium multiflorum; Dosage 120 g a.i./ha): A (A indicates that the inhibition rate was greater than or equal to 80% to 100%)
9 | COC(=O)[C@@H]1C=C[C@H](NC(=O)C2(C)CC(c3cc(F)cc(C(F)(F)F)c3)=NO2)C1 (stereo partly drawn) [I-495] |  |  |  |  |  |  |  |  |  |  | inhibition at 120 g/ha (Aegilops tauschii): 80 to 100%; Herbicidal activity (inhibition rate class), Alopecurus japonicus (Alopecurus japonicus; Dosage 240 g a.i./ha): A (A indicates that the inhibition rate was greater than or equal to 80% to 100%); Herbicidal activity (inhibition rate class), Alopecurus myosuroides (Alopecurus myosuroides; Dosage 240 g a.i./ha): A (A indicates that the inhibition rate was greater than or equal to 80% to 100%); inhibition at 120 g/ha (Cyperus iria): 80 to 100%; inhibition at 120 g/ha (Eclipta prostrata): 60 to 80%; Herbicidal activity (inhibition rate class), Eleusine indica (Eleusine indica; Dosage 240 g a.i./ha): A (A indicates that the inhibition rate was greater than or equal to 80% to 100%); Herbicidal activity (inhibition rate class), Leptochloa chinensis (Leptochloa chinensis; Dosage 240 g a.i./ha): A (A indicates that the inhibition rate was greater than or equal to 80% to 100%); Herbicidal activity (inhibition rate class), Lolium multiflorum (Lolium multiflorum; Dosage 240 g a.i./ha): A (A indicates that the inhibition rate was greater than or equal to 80% to 100%)
10 | C=CC1(C(=O)N[C@H]2C[C@@H](C(=O)OC)C2)CC(c2cc(F)cc(F)c2)=NO1 (stereo partly drawn) [I-3] |  |  |  |  |  |  |  |  |  |  | Herbicidal activities, Alopecurus japonicus (inhibition rate class) (Alopecurus japonicus; Dosage 240 g a.i./ha): A (A indicates that the inhibition rate was greater than or equal to 80% to 100%); Herbicidal activities, Alopecurus myosuroides (inhibition rate class) (Alopecurus myosuroides; Dosage 240 g a.i./ha): A (A indicates that the inhibition rate was greater than or equal to 80% to 100%); inhibition at 120 g/ha (Cyperus iria): 80 to 100%; inhibition at 120 g/ha (Digitaria sanguinalis; 120 g a.i./ha): 80 to 100%; inhibition at 120 g/ha (Eclipta prostrata): 80 to 100%; Herbicidal activities, Eleusine indica (inhibition rate class) (Eleusine indica; Dosage 240 g a.i./ha): A (A indicates that the inhibition rate was greater than or equal to 80% to 100%); Herbicidal activities, Leptochloa chinensis (inhibition rate class) (Leptochloa chinensis; Dosage 240 g a.i./ha): A (A indicates that the inhibition rate was greater than or equal to 80% to 100%); Herbicidal activities, Lolium multiflorum (inhibition rate class) (Lolium multiflorum; Dosage 240 g a.i./ha): A (A indicates that the inhibition rate was greater than or equal to 80% to 100%)
11 | C=C[C@]1(C(=O)N[C@H]2C=C[C@@H](C(=O)OCCCOC)C2)CC(c2cc(F)cc(C(F)(F)F)c2)=NO1 [I-436] | A (A indicates that the inhibition rate was greater than or equal to 80% to 100%) | A (A indicates that the inhibition rate was greater than or equal to 80% to 100%) | 60 to 80 | 80 to 100 | 60 to 80 | A (A indicates that the inhibition rate was greater than or equal to 80% to 100%) | A (A indicates that the inhibition rate was greater than or equal to 80% to 100%) | B (B indicates that the inhibition rate was greater than or equal to 60% to less than 80%) |  |  | 

Source: EP4722201A1, “3-PHENYLISOXAZOLINE-5-CARBOXAMIDE COMPOUND, AND PREPARATION METHOD THEREFOR, HERBICIDAL COMPOSITION THEREOF AND USE THEREOF” (Jiangsu Flag Chemical Industry Co., Ltd, priority 2023, dated 2024)
